# Reference: PubChem BioAssay (NCI)
#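 These data come from cells grown in 96-well plates and exposed to compound for 48 hours at five concentrations. TGI marks complete inhibition of growth.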
# What was measured:
# Experiment in all cases: NCI anticancer screen, dose series, 48 h
# 786-0 renal = tested on: 786-0 renal
# A498 renal = tested on: A498 renal
# A549 NSCLC = tested on: A549 NSCLC
# ACHN renal = tested on: ACHN renal
# CAKI-1 renal = tested on: CAKI-1 renal
# CCRF-CEM leukemia = tested on: CCRF-CEM leukemia
# COLO 205 colon = tested on: COLO 205 colon
# DLD-1 colon = tested on: DLD-1 colon
# DMS 114 small cell lung = tested on: DMS 114 small cell lung
# DMS 273 small cell lung = tested on: DMS 273 small cell lung
# EKVX NSCLC = tested on: EKVX NSCLC
# HCC-2998 colon = tested on: HCC-2998 colon
# HCT-116 colon = tested on: HCT-116 colon
# HCT-15 colon = tested on: HCT-15 colon
# HL-60(TB) leukemia = tested on: HL-60(TB) leukemia
# HOP-62 NSCLC = tested on: HOP-62 NSCLC
# HOP-92 NSCLC = tested on: HOP-92 NSCLC
# HT29 colon = tested on: HT29 colon
# IGROV1 ovarian = tested on: IGROV1 ovarian
# K-562 leukemia = tested on: K-562 leukemia
# KM12 colon = tested on: KM12 colon
# KM20L2 colon = tested on: KM20L2 colon
# LOX IMVI melanoma = tested on: LOX IMVI melanoma
# LXFL 529 NSCLC = tested on: LXFL 529 NSCLC
# M14 melanoma = tested on: M14 melanoma
# M19-MEL melanoma = tested on: M19-MEL melanoma
# MALME-3M melanoma = tested on: MALME-3M melanoma
# MOLT-4 leukemia = tested on: MOLT-4 leukemia
# NCI-H23 lung = tested on: NCI-H23 lung
# NCI-H460 lung = tested on: NCI-H460 lung
# NCI-H522 lung = tested on: NCI-H522 lung
# OVCAR-3 ovarian = tested on: OVCAR-3 ovarian
# OVCAR-4 ovarian = tested on: OVCAR-4 ovarian
# OVCAR-5 ovarian = tested on: OVCAR-5 ovarian
# OVCAR-8 ovarian = tested on: OVCAR-8 ovarian
# RPMI-8226 leukemia = tested on: RPMI-8226 leukemia
# RXF 393 renal = tested on: RXF 393 renal
# SF-268 CNS = tested on: SF-268 CNS
# SF-295 CNS = tested on: SF-295 CNS
# SK-MEL-2 melanoma = tested on: SK-MEL-2 melanoma
# SK-MEL-28 melanoma = tested on: SK-MEL-28 melanoma
# SK-MEL-5 melanoma = tested on: SK-MEL-5 melanoma
# SK-OV-3 ovarian = tested on: SK-OV-3 ovarian
# SN12C renal = tested on: SN12C renal
# SNB-19 CNS = tested on: SNB-19 CNS
# SNB-75 CNS = tested on: SNB-75 CNS
# SR leukemia = tested on: SR leukemia
# SW-620 colon = tested on: SW-620 colon
# TK-10 renal = tested on: TK-10 renal
# U251 CNS = tested on: U251 CNS
# UACC-257 melanoma = tested on: UACC-257 melanoma
# UACC-62 melanoma = tested on: UACC-62 melanoma
# UO-31 renal = tested on: UO-31 renal
# XF 498 CNS = tested on: XF 498 CNS
# HOP-18 NSCLC = tested on: HOP-18 NSCLC
# NCI-H226 lung = tested on: NCI-H226 lung
# SF-539 CNS = tested on: SF-539 CNS
# SNB-78 CNS = tested on: SNB-78 CNS
compound,measurement,setting,value
O=C1Oc2cc3c(c4cccc1c24)OCN(c1ccccc1)C3,TGI,786-0 renal,> 100 µM
same,TGI,A498 renal,> 100 µM
same,TGI,A549 NSCLC,> 100 µM
same,TGI,ACHN renal,> 100 µM
same,TGI,CAKI-1 renal,> 100 µM
same,TGI,CCRF-CEM leukemia,86.2 µM
same,TGI,COLO 205 colon,> 100 µM
same,TGI,DLD-1 colon,> 100 µM
same,TGI,DMS 114 small cell lung,> 100 µM
same,TGI,DMS 273 small cell lung,> 100 µM
same,TGI,EKVX NSCLC,> 100 µM
same,TGI,HCC-2998 colon,> 100 µM
same,TGI,HCT-116 colon,> 100 µM
same,TGI,HCT-15 colon,> 100 µM
same,TGI,HL-60(TB) leukemia,> 100 µM
same,TGI,HOP-62 NSCLC,> 100 µM
same,TGI,HOP-92 NSCLC,> 100 µM
same,TGI,HT29 colon,> 100 µM
same,TGI,IGROV1 ovarian,> 100 µM
same,TGI,K-562 leukemia,63 µM
same,TGI,KM12 colon,> 100 µM
same,TGI,KM20L2 colon,> 100 µM
same,TGI,LOX IMVI melanoma,> 100 µM
same,TGI,LXFL 529 NSCLC,> 100 µM
same,TGI,M14 melanoma,> 100 µM
same,TGI,M19-MEL melanoma,> 100 µM
same,TGI,MALME-3M melanoma,> 100 µM
same,TGI,MOLT-4 leukemia,> 100 µM
same,TGI,NCI-H23 lung,> 100 µM
same,TGI,NCI-H460 lung,> 100 µM
same,TGI,NCI-H522 lung,56.9 µM
same,TGI,OVCAR-3 ovarian,> 100 µM
same,TGI,OVCAR-4 ovarian,> 100 µM
same,TGI,OVCAR-5 ovarian,> 100 µM
same,TGI,OVCAR-8 ovarian,> 100 µM
same,TGI,RPMI-8226 leukemia,> 100 µM
same,TGI,RXF 393 renal,> 100 µM
same,TGI,SF-268 CNS,> 100 µM
same,TGI,SF-295 CNS,> 100 µM
same,TGI,SK-MEL-2 melanoma,> 100 µM
same,TGI,SK-MEL-28 melanoma,> 100 µM
same,TGI,SK-MEL-5 melanoma,> 100 µM
same,TGI,SK-OV-3 ovarian,> 100 µM
same,TGI,SN12C renal,> 100 µM
same,TGI,SNB-19 CNS,> 100 µM
same,TGI,SNB-75 CNS,> 100 µM
same,TGI,SR leukemia,> 100 µM
same,TGI,SW-620 colon,> 100 µM
same,TGI,TK-10 renal,> 100 µM
same,TGI,U251 CNS,> 100 µM
same,TGI,UACC-257 melanoma,> 100 µM
same,TGI,UACC-62 melanoma,> 100 µM
same,TGI,UO-31 renal,> 100 µM
same,TGI,XF 498 CNS,> 100 µM
NC(CO)c1ccc(OCc2ccccc2)cc1 (configuration not stated),TGI,786-0 renal,> 100 µM
same,TGI,A498 renal,> 100 µM
same,TGI,A549 NSCLC,> 100 µM
same,TGI,ACHN renal,> 100 µM
same,TGI,CAKI-1 renal,> 91.4 µM
same,TGI,CCRF-CEM leukemia,> 100 µM
same,TGI,COLO 205 colon,> 100 µM
same,TGI,DLD-1 colon,> 100 µM
same,TGI,DMS 114 small cell lung,> 100 µM
same,TGI,DMS 273 small cell lung,> 100 µM
same,TGI,EKVX NSCLC,> 100 µM
same,TGI,HCC-2998 colon,> 100 µM
same,TGI,HCT-116 colon,> 100 µM
same,TGI,HCT-15 colon,> 100 µM
same,TGI,HL-60(TB) leukemia,> 100 µM
same,TGI,HOP-18 NSCLC,> 100 µM
same,TGI,HOP-62 NSCLC,> 100 µM
same,TGI,HOP-92 NSCLC,98.1 µM
same,TGI,HT29 colon,> 100 µM
same,TGI,IGROV1 ovarian,> 100 µM
same,TGI,K-562 leukemia,> 100 µM
same,TGI,KM12 colon,> 100 µM
same,TGI,KM20L2 colon,> 100 µM
same,TGI,LOX IMVI melanoma,> 100 µM
same,TGI,LXFL 529 NSCLC,> 100 µM
same,TGI,M14 melanoma,> 100 µM
same,TGI,M19-MEL melanoma,> 100 µM
same,TGI,MALME-3M melanoma,> 100 µM
same,TGI,MOLT-4 leukemia,> 100 µM
same,TGI,NCI-H226 lung,> 100 µM
same,TGI,NCI-H23 lung,> 100 µM
same,TGI,NCI-H460 lung,> 100 µM
same,TGI,NCI-H522 lung,> 100 µM
same,TGI,OVCAR-3 ovarian,> 100 µM
same,TGI,OVCAR-4 ovarian,> 100 µM
same,TGI,OVCAR-5 ovarian,> 100 µM
same,TGI,OVCAR-8 ovarian,> 100 µM
same,TGI,RPMI-8226 leukemia,> 100 µM
same,TGI,RXF 393 renal,> 100 µM
same,TGI,SF-268 CNS,> 100 µM
same,TGI,SF-295 CNS,> 100 µM
same,TGI,SF-539 CNS,> 100 µM
same,TGI,SK-MEL-2 melanoma,> 100 µM
same,TGI,SK-MEL-28 melanoma,> 100 µM
same,TGI,SK-MEL-5 melanoma,> 100 µM
same,TGI,SK-OV-3 ovarian,> 100 µM
same,TGI,SN12C renal,> 100 µM
same,TGI,SNB-19 CNS,> 100 µM
same,TGI,SNB-75 CNS,98.9 µM
same,TGI,SNB-78 CNS,> 100 µM
same,TGI,SR leukemia,81.5 µM
same,TGI,SW-620 colon,> 100 µM
same,TGI,TK-10 renal,> 100 µM
same,TGI,U251 CNS,> 100 µM
same,TGI,UACC-257 melanoma,> 100 µM
same,TGI,UACC-62 melanoma,> 100 µM
same,TGI,UO-31 renal,> 100 µM
same,TGI,XF 498 CNS,> 100 µM
